IC50 data for 15 compounds are collected here from patent US12564638B2 (SHANGHAITECH UNIVERSITY, priority 2019, dated 2026).

Type in all cases: cell-based
For assay [1], the system named is HCC827 cells (EGFR Exon19 del, non-small cell lung cancer cells). Nature of the assay: Cell viability assay (WST/CCK8), HCC827 cells. The settings on record: Homo sapiens, HCC827, 72 h, Table 3, poziotinib-based compounds; HCC827 (Exon19 Del); 72 hours; WST (CCK8); read-out: IC50 (half inhibitory concentration). Put shortly:
(§1)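 Cells seeded at 3 000/well in RPMI1640 complete medium, dosed next day with compounds (top 10 μM, 3-fold, 10 points) for 72 h. Viability read with WST (CCK8) reagent; DMSO as negative control, EGFR TKIs as positive controls; IC50 determined.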

Assay [2] concerns PC9 DCT (Del19+T790M+C797S) cells. The experiment in a line: Cell viability assay, PC9 cells with EGFR triple mutation. Conditions: Homo sapiens, PC-9; Table 9; PC9 (Del + T790M + C797S), EGFR triple mutations; read-out: IC50 (half inhibitory concentration). The source says:
Construction of EGFR triple mutant cell line PC9 DCT (Dell9+T790M+C797S): The cDNA expressing human EGFR was cloned into pLVX vector, and exon 19 deletion mutation (746-750) and T790M mutation were introduced by point mutation and C797S mutation. Transferred into PC9 cells by lentiviral packaging. Cells stably expressing EGFR triple mutations were obtained by fluorescence screening.
The cDNA sequence expressing human EGFR was cloned into a pLVX vector (GFP^+), and then introduce the EGFR exon 19 deletion (746-750), exon 20 T790M and C797S mutations by were generated by site-directed mutagenesis. The PC9 cells were infected with lentivirus containing the indicated EGFR mutations, and the cells stably expressing EGFR triple mutation were obtained by fluorescence screening.
All of the half inhibitory concentrations (IC50) of these compounds of the present invention were determined with WST reagent from Fuyuan Biotec Company. The specific experiment procedures are as follows: Cancer cells were planted in 96-well-plate at the density of 3 000 cells per well with 100 μL RPMI1640 completed culture medium. In the next day, compounds with indicated concentrations were added to the cells, DMSO was used as the negative control and the EGFR TKIs were used to treat cells as the positive groups. After 72 hours drug treatment, cell viability was measured by using the WST reagent following the instructions. The growth inhibition curve of the compounds on cells were plotted by Prism GraphPad, and the compounds IC50 calculated from it.
The cell viability assays were taken to determine the anti-tumor activity of these indicated compounds in PC9 cells, which overexpressed Exon 19del+T790M+C797S triple mutant EGFR.

Assay [3] concerns PC9 cells (EGFR Exon 19 del, non-small cell lung cancer cells). Nature of the assay: Cell viability assay (WST/CCK8), PC9 cells. Conditions: Homo sapiens, PC-9; Table 3, poziotinib-based compounds; PC9 (Exon 19 Del); 72 hours; WST (CCK8); read-out: IC50 (half inhibitory concentration). Put shortly:
as §1

In assay [4] the test system is BT474 cells (HER2 positive breast cancer cells). Nature of the assay: Cell viability assay (CCK8), BT474 cells. The settings on record: Homo sapiens, BT-474, Table 10, BT474, 72 hours, read-out: IC50 (half inhibitory concentration). The gist of the method: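 HER2-overexpressing BT474 cells in RPMI1640 were exposed to compounds for 72 hours over 10 concentrations (3-fold dilution, top 10 μM). Viability was measured with CCK8 reagent against a DMSO control, and IC50 was taken from growth inhibition curves.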

Structures are written as SMILES.

On to `COc1cc2ncnc(Nc3ccc(Cl)c(Cl)c3F)c2cc1OC1CCN(C(=O)CCCCCCSc2cccc3c2CN(C2CCC(=O)NC2=O)C3=O)CC1` (centres unmarked) [SIAIS219169, 3-(4-((7-(4-((4-((3,4-dichloro-2-fluorophenyl)amino)-7-methoxyquinazolin-6-yl)oxy)piperidin-1-yl)-7-oxoheptyl)thio)-1-oxoisoindolin-2-yl)piperidine-2,6-dione], for which the IC50 amounted to 38 nM in assay [1] and 3.6 nM in assay [2].
As for `COc1cc2ncnc(Nc3ccc(Cl)c(Cl)c3F)c2cc1OC1CCN(C(=O)CSc2cccc3c2CN(C2CCC(=O)NC2=O)C3=O)CC1` (centres unmarked) [SIAIS219164, 3-(4-((2-(4-((4-((3,4-dichloro-2-fluorophenyl)amino)-7-methoxyquinazolin-6-yl)oxy)piperidin-1-yl)-2-oxoethyl)thio)-1-oxoisoindolin-2-yl)piperidine-2,6-dione], the IC50 in assay [1] was 33 nM; in assay [2] it was 4.8 nM.
The corresponding values for `COc1cc2ncnc(Nc3ccc(Cl)c(Cl)c3F)c2cc1OC1CCN(C(=O)CCCCCSc2cccc3c2CN(C2CCC(=O)NC2=O)C3=O)CC1` (centres unmarked) [SIAIS219168, 3-(4-((6-(4-((4-((3,4-dichloro-2-fluorophenyl)amino)-7-methoxyquinazolin-6-yl)oxy)piperidin-1-yl)-6-oxohexyl)thio)-1-oxoisoindolin-2-yl)piperidine-2,6-dione] are 40 nM and 2.9 nM.
The matching figures for `COc1cc2ncnc(Nc3ccc(Cl)c(Cl)c3F)c2cc1OC1CCN(C(=O)CCCCSc2cccc3c2CN(C2CCC(=O)NC2=O)C3=O)CC1` (centres unmarked) [SIAIS219167, 3-(4-((5-(4-((4-((3,4-dichloro-2-fluorophenyl)amino)-7-methoxyquinazolin-6-yl)oxy)piperidin-1-yl)-5-oxopentyl)thio)-1-oxoisoindolin-2-yl)piperidine-2,6-dione]: 31 nM and 4.1 nM.
The corresponding values for `COc1cc2ncnc(Nc3ccc(Cl)c(Cl)c3F)c2cc1OC1CCN(C(=O)CCCCNc2cccc3c2C(=O)N(C2CCC(=O)NC2=O)C3=O)CC1` (centres unmarked) [SIAIS219180, 4-((5-(4-((4-((3,4-dichloro-2-fluorophenyl)amino)-7-methoxyquinazolin-6-yl)oxy)piperidin-1-yl)-5-oxopentyl)amino)-2-(2,6-dioxopiperidin-3-yl)isoindoline-1,3-dione] are 26.7 nM and 3.3 nM.
As to `COc1cc2ncnc(Nc3ccc(Cl)c(Cl)c3F)c2cc1OC1CCN(C(=O)CNc2cccc3c2C(=O)N(C2CCC(=O)NC2=O)C3=O)CC1` (centres unmarked) [SIAIS219177, 4-((2-(4-((4-((3,4-dichloro-2-fluorophenyl)amino)-7-methoxyquinazolin-6-yl)oxy)piperidin-1-yl)-2-oxoethyl)amino)-2-(2,6-dioxopiperidin-3-yl)isoindoline-1,3-dione], the IC50 in assay [1] was 8.2 nM; in assay [3], 38 nM; in assay [2], 2.4 nM; in assay [4], 35.9 nM.
For `COc1cc2ncnc(Nc3ccc(Cl)c(Cl)c3F)c2cc1OC1CCN(C(=O)CCCCSc2cccc3c2C(=O)N(C2CCC(=O)NC2=O)C3=O)CC1` (centres unmarked) [SIAIS249017, 4-((5-(4-((4-((3,4-dichloro-2-fluorophenyl)amino)-7-methoxyquinazolin-6-yl)oxy)piperidin-1-yl)-5-oxopentyl)thio)-2-(2,6-dioxopiperidin-3-yl)isoindoline-1,3-dione], the IC50 in assay [1] was 23 nM; in assay [2] it was 2.2 nM.
The corresponding values for `COc1cc2ncnc(Nc3ccc(Cl)c(Cl)c3F)c2cc1OC1CCN(C(=O)CCCSc2cccc3c2C(=O)N(C2CCC(=O)NC2=O)C3=O)CC1` (centres unmarked) [SIAIS249016, 4-((4-(4-((4-((3,4-dichloro-2-fluorophenyl)amino)-7-methoxyquinazolin-6-yl)oxy)piperidin-1-yl)-4-oxobutyl)thio)-2-(2,6-dioxopiperidin-3-yl)isoindoline-1,3-dione] are 29 nM and 1.5 nM.
Take `COc1cc2ncnc(Nc3ccc(Cl)c(Cl)c3F)c2cc1OC1CCNCC1` [Poziotinib derivative A (SIAIS219149), N-(3,4-dichloro-2-fluorophenyl)-7-methoxy-6-(piperidin-4-yloxy)quinazolin-4-amine]: the IC50 in assay [1] was determined as 7.1 nM; in assay [3], 17 nM; in assay [2] it was 5.2 nM; in assay [4], 81.2 nM.
Consider `COc1cc2ncnc(Nc3ccc(Cl)c(Cl)c3F)c2cc1OC1CCN(C(=O)CCCNc2cccc3c2C(=O)N(C2CCC(=O)NC2=O)C3=O)CC1` (centres unmarked) [SIAIS219179, 4-((4-(4-((4-((3,4-dichloro-2-fluorophenyl)amino)-7-methoxyquinazolin-6-yl)oxy)piperidin-1-yl)-4-oxobutyl)amino)-2-(2,6-dioxopiperidin-3-yl)isoindoline-1,3-dione], for which the IC50 in assay [1] worked out at 20.2 nM; in assay [2], 3.9 nM.
As for `COc1cc2ncnc(Nc3ccc(Cl)c(Cl)c3F)c2cc1OC1CCN(C(=O)CSc2cccc3c2C(=O)N(C2CCC(=O)NC2=O)C3=O)CC1` (centres unmarked) [SIAIS249014, 4-((2-(4-((4-((3,4-dichloro-2-fluorophenyl)amino)-7-methoxyquinazolin-6-yl)oxy)piperidin-1-yl)-2-oxoethyl)thio)-2-(2,6-dioxopiperidin-3-yl)isoindoline-1,3-dione], the IC50 turned out to be 51 nM in assay [1] and 1.8 nM in assay [2].
In the case of `COc1cc2ncnc(Nc3ccc(Cl)c(Cl)c3F)c2cc1OC1CCN(C(=O)CCCSc2cccc3c2CN(C2CCC(=O)NC2=O)C3=O)CC1` (centres unmarked) [SIAIS219166, 3-(4-((4-(4-((4-((3,4-dichloro-2-fluorophenyl)amino)-7-methoxyquinazolin-6-yl)oxy)piperidin-1-yl)-4-oxobutyl)thio)-1-oxoisoindolin-2-yl)piperidine-2,6-dione], the figures for the IC50 in assay [1] and in assay [2] were 30 nM and 4.6 nM, respectively.
For `COc1cc2ncnc(Nc3ccc(Cl)c(Cl)c3F)c2cc1OC1CCN(C(=O)CCCCCNc2cccc3c2C(=O)N(C2CCC(=O)NC2=O)C3=O)CC1` (centres unmarked) [SIAIS219181, 4-((6-(4-((4-((3,4-dichloro-2-fluorophenyl)amino)-7-methoxyquinazolin-6-yl)oxy)piperidin-1-yl)-6-oxohexyl)amino)-2-(2,6-dioxopiperidin-3-yl)isoindoline-1,3-dione], the IC50 in assay [1] worked out at 23.1 nM; in assay [2] it was 3.8 nM.
With `COc1cc2ncnc(Nc3ccc(Cl)c(Cl)c3F)c2cc1OC1CCN(C(=O)CCSc2cccc3c2C(=O)N(C2CCC(=O)NC2=O)C3=O)CC1` (centres unmarked) [SIAIS249015, 4-((3-(4-((4-((3,4-dichloro-2-fluorophenyl)amino)-7-methoxyquinazolin-6-yl)oxy)piperidin-1-yl)-3-oxopropyl)thio)-2-(2,6-dioxopiperidin-3-yl)isoindoline-1,3-dione], the IC50 in assay [1] is 46 nM; in assay [3] it was 130 nM; in assay [2] it was 4.7 nM; in assay [4], 87 nM.
For the compound `COc1cc2ncnc(Nc3ccc(Cl)c(Cl)c3F)c2cc1OC1CCN(C(=O)CCSc2cccc3c2CN(C2CCC(=O)NC2=O)C3=O)CC1` (centres unmarked) [SIAIS219165, 3-(4-((3-(4-((4-((3,4-dichloro-2-fluorophenyl)amino)-7-methoxyquinazolin-6-yl)oxy)piperidin-1-yl)-3-oxopropyl)thio)-1-oxoisoindolin-2-yl)piperidine-2,6-dione], the IC50 in assay [1] turned out to be 23 nM; in assay [3], 3 nM; in assay [2], 4.6 nM; in assay [4] it was 2.7 nM.
